Assay results reported in article PMC10557233, “Controlled release of Clenbuterol from a hydroxyapatite carrier for the treatment of Alzheimer’s Disease” (Biomaterials Research, 2023).
Like-named read-outs stand apart in the source and are kept apart here.

Tests used:
BV-2 microglial cells = test: Western blot analysis of LPS-induced inflammation; format: cell-based
Experimental: LPS (L2880, Sigma) was dissolved in normal saline before injection. BV2 cells were seeded in 6-well plates at a density of 10^5 cells/well and cultured for 1 day to allow full adhesion. […] Subsequently, LPS (1 µg/mL) was added to induce inflammation for 24 h. The medium was then removed and the BV2 cells were washed three times with PBS. The cells were then lysed in 100 µL of ice-cold radioimmunoprecipitation assay buffer, and protein concentrations were quantified using the Bio-Rad protein assay. Equal amounts of proteins were electrophoresed on a 10% sodium dodecyl sulfate-polyacrylamide gel. The separated proteins were transferred onto nitrocellulose membranes and incubated with primary monoclonal mouse antibodies (BIOTOOLS Co., Ltd., Taipei, Taiwan) against IL-6 (1:1000), IL-1β (1:1000), TNF-α (1:1000), and β-actin (1:5000) overnight at 4 °C. Following incubation with the appropriate secondary antibody, the signals were analyzed using an imaging system (Bio-Rad).

[1] = tested on: rats with AlCl3-induced AD; test: Western blot of brain tissue for synapsin-1, synaptophysin, BACE1 and TNF-α; format: in vivo, SD rats; conditions: compared with the AD group
Experimental: (§1) The study used 60 male SD rats (BioLASCO, Taiwan; average age, 8 weeks). The study was approved by the Institutional Animal Care and Use Committee (No. 20,190,497) of National Taiwan University. CLB.HCl (Sigma-Aldrich C5423; Lot# BCBQ2163V) powder was stored at 4 °C and diluted in sterile 0.9% saline to a concentration of 20 µM based on the free base before injection. AlCl3 (7446-70-0, Sigma-Aldrich) was dissolved in normal saline before injection, and 70 mg/kg body weight of AlCl3 was administered intraperitoneally (i.p.) three times weekly for 8 weeks as previously described. […] After 8 weeks, several animal behavioral tests, histological staining, pharmacokinetics, and biochemical analyses were performed.

Aβ42 peptides = target: T1, Aβ42 peptides (Homo sapiens, UniProt P05067); test: Thioflavin T fluorescence assay and TEM of Aβ aggregation; format: biochemical
T1 construct: Aβ42 peptides were obtained from Peptide Institute, Inc; purchased Peptide Institute, Inc. (ASIA BIOSCIENCE Co., Ltd., Taiwan)
T1 sequence (P05067 672-713 limits assumed): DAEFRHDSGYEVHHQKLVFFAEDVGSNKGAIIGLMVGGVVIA
Experimental: Aβ42 peptides were obtained from Peptide Institute, Inc. (ASIA BIOSCIENCE Co., Ltd., Taiwan) and dissolved in hexafluoro-2-propanol (HFIP; Oakwood Products, Estill, SC, USA) to a final concentration of 1 mM for monomerization. The resulting solution was stored at − 80 °C. The monomerized peptides were resuspended in anhydrous DMSO (catalog number D-2650, Sigma) and diluted to a concentration of 100 µM using Dulbecco’s modified Eagle’s medium (DMEM, Sigma) before use. Aβ fibrils were formed by shaking the solution at 37 °C for 3 days. The morphology of the fibrils, with or without CLB incubation for 3 days, was observed using transmission electron microscopy (TEM). Samples were incubated with 1% uranyl acetate for 1 min before TEM.
The progression of amyloid β aggregation was tracked using thioflavin T (ThT), a fluorescent dye originally used to stain amyloid fibrils in histological samples. […] ThT fluorescence was measured at 25 °C using a spectrophotometric plate reader (ELISA reader, Tecan Sunrise, Switzerland) with an excitation filter at 450 nm and an emission filter at 482 nm, the computation of intensity was performed through the utilization of SoftMax Pro 7.0 software (Molecular Devices, CA, USA). After ThT binds to β-sheet aggregate structures, such as amyloid fibrils, its fluorescence emission changes, allowing the monitoring of amyloid β aggregation.

[2] = tested on: rats with AlCl3-induced AD; test: Morris water maze test in rats with AlCl3-induced AD; format: in vivo, SD rats; conditions: 6 mg/kg intramuscular weekly, 8 weeks
Experimental: as §1
This study used a circular pool partitioned into four quadrants, one of which contained an underwater platform. […] After four training sessions, the time taken by the rats to reach the escape platform was measured using EthoVision software (Noldus Information Technology, Wageningen, Netherlands). […] To evaluate spatial memory, the time taken by each rat to reach the platform from the starting position was recorded. On the contrary, working memory was assessed by determining the amount of time spent by the rat in the same quadrant (up to 120 s) but without a platform. The time spent in the quadrant without a platform was also recorded.

L929 cell line = test: Biocompatibility by WST-1 assay (ISO 10993); format: cell-based
Experimental: The extracted supernatants were collected for subsequent experiments. Zinc diethyldithiocarbamate was used as a positive control and aluminum oxide was used as a negative control. After adding the WST-1 solution to the wells, the plate was incubated for 2 h, and the absorbance of each well was measured at 450 nm using a spectrophotometric plate reader (ELISA reader, Tecan Sunrise, Switzerland). The percentage of viable cells was calculated using the following equation:
Cell viability (%) = ((OD experiment - OD background) ×100)/ ((OD control - OD background))…(2).

[3] = Plasma pharmacokinetics of CLB by LC-MS/MS after intramuscular administration; format: in vivo, SD rats
Experimental: as §1
LC-MS/MS was used to perform quantitative analysis using an LCMS8030 system (Shimadzu, Japan). We used the multiple reaction monitoring mode for mass spectrometric analysis, and the MS/MS parameters were optimized by flow injection analysis. Plasma samples were prepared using simple protein precipitation in methanol. The specificity of the method was tested by analyzing blank rat plasma, blank rat plasma spiked with clenbuterol-d9 (internal standard, IS), and plasma samples collected after CLB administration. A Thermo Hypersil Gold aQ C18 column (50 mm × 2.1 mm) with a particle size of 1.9 μm was used for separation. The mobile phase gradient consisted of (A) 2% methanol in pure water + 0.1% formic acid, and (B) methanol with 0.1% formic acid. The gradient elution was as follows: 30% B (0 min), 30% B (0.5 min), 98% B (2.5 min), 98% B (3.5 min), 30% B (4 min), and 30% B (5.5 min) at a flow rate of 300 µL/min, with a total run time of […]. A calibration curve was constructed using the plasma concentration of the quality control (QC) sample and the peak area ratio (y) of the QC sample to the IS. The linear calibration curves of CLB ranged from 0.5 to 200 ng/mL, with correlation coefficients over 0.99952. The injection volume of the final solution was 20 µL for the serum specimens. To evaluate the accuracy, precision, and extraction recovery of the assay, three sequential assays were performed with six replicates of QC samples (5, 50, and 500 ng/mL CLB) for each assay. QC samples were prepared from normal blank rat plasma at concentrations of 0.5, 2, 5, 20, 50, 200, and 500 ng/mL of CLB. The concentrations of the QC samples were calculated based on the calibration curve and compared with those of the control samples with the same concentration. For the brain sample homogenization procedures, a brain sample and an equivalent weight of 25% plasma solution were mixed in a 50 mL centrifuge tube and homogenized completely at 30,000 rpm on ice. The resulting homogenized solution was centrifuged and the supernatant was collected as a test sample. The test sample was filtered through a 0.2 μm GHP filter, and 200 µL of the sample mixture was transferred into a new 96-well 1 mL round collection plate and sealed. Finally, the samples were placed in an autosampler to be injected.

N2a cell line = test: N2a cell viability versus concentration (IC50); format: cell-based; conditions: Mus musculus; N2a cells; called predicted IC50; read-out: IC50 (concentration at which 50% cell survival was observed)
[4] = Drug content in brain tissues by LC/MS/MS; format: in vivo, SD rats; conditions: male, SD, 6 mg/kg; rat brain homogenate, intramuscular injection; read-out: Concentration in brain tissues 24 h after injection
Experimental: as §1
LC-MS/MS was used to perform quantitative analysis using an LCMS8030 system (Shimadzu, Japan). We used the multiple reaction monitoring mode for mass spectrometric analysis, and the MS/MS parameters were optimized by flow injection analysis. Plasma samples were prepared using simple protein precipitation in methanol. The specificity of the method was tested by analyzing blank rat plasma, blank rat plasma spiked with clenbuterol-d9 (internal standard, IS), and plasma samples collected after CLB administration. […] The concentrations of the QC samples were calculated based on the calibration curve and compared with those of the control samples with the same concentration. […]

[5] = male, SD, im, rat plasma, 6 mg/kg intramuscular

CC(C)(C)NCC(O)c1cc(Cl)c(N)c(Cl)c1 (centres unmarked) [CLB, Clenbuterol]
protein expression levels of IL-1β, IL-6, and TNF-α (BV-2 microglial cells; LPS-induced BV-2 cells, western blot): prominently reduced | secretion of IL-1β, IL-6, and TNF-α (BV-2 microglial cells; LPS-stimulated BV-2 cells, 20 µM, vs LPS-treated control cells): significant inhibitory effects | expression of synapsin-1 and synaptophysin in hippocampus [1]: significant increase | effect on Aβ aggregates (ThT fluorescence) (Aβ42 peptides; 10 µM Aβ incubated with 20 µM CLB): extensive fragmentation | effect on Aβ fibrils (TEM) (Aβ42 peptides; Aβ and CLB co-incubated for 3 days): disassembled amyloid plaques | time to locate the escape platform (MWM) [2]: did not exhibit a performance similar to that of the SHAP-CLB group | cell viability / cytotoxicity (L929 cell line; L929 cells, day 3, WST-1, extract medium): no notable disparities in cell viability | half-life ([3]; SD, rat, plasma, intramuscular, 6 mg/kg, rats): ~30 h | AUC(0-inf) [3, 5]: 5200 ± 4000 ng·h/mL | Tmax [3, 5]: 4 h | AUC(0-t) ([3]; male, SD, im, rat plasma, 6 mg/kg intramuscular, 0.5-168 hr): 4890 ± 3740 ng·h/mL | Cmax ([3]; male, SD, rat, plasma, im, 6 mg/kg, rat plasma, 6 mg/kg intramuscular, read-out: Cmax): 120 ± 12.8 ng/mL | Cmax ([3]; rat plasma, 6 mg/kg intramuscular, 6 mg/kg): 120.19 ng/mL | accumulation after multiple-dose administration ([3]; rats, repeated intramuscular dosing): no apparent accumulation | IC50 (N2a cell line): 20 µM | concentration at 24 h [4]: 5.24 ± 1.81 ng/mL

Hydroxyapatite [HAP]
cell viability / cytotoxicity (L929 cell line): no notable disparities in cell viability
